Measured values taken from EP0767778B1, “1-PHENOXY-3-N-ALKYLAMINOPROPAN-2-OL HALOGEN DERIVATIVES USEFUL AS MYOCARDIAL beta [sequence] RECEPTOR MARKERS AND AS beta-BLOCKING AGENTS” (CIS BIO INTERNATIONAL, priority 1994, dated 1996).
pIC50: −log10 of the molar value. Where two headings read alike, the source gives them in different places. Blank lines part the entries; values can stand above or below the compound they belong to.

Experiments:
[1] = target: récepteurs β adrénergiques; assay: displacement of [^3H]CGP 12177 previously bound on newborn rat cardiomyocytes; assay type: binding, rats nouveau-nés; settings: read-out: CI50 (the source's name)
Text: Dans cet exemple, on teste l'affinité du composé 6 marqué avec ^123I vis-à-vis des récepteurs β adrénergiques.
On étudie sur cardiomyocytes de rats nouveau-nés la capacité du composé 6 à déplacer le [^3H]CGP 12177 préalablement fixé sur les récepteurs.

[2] = test system: récepteurs β adrénergiques; assay: isolated perfused rat heart (Langendorff), antagonism of isoprenaline on dP/dt max
Procedure: Dans cet exemple, on teste la propriété pharmacologique antagoniste du composé 6 vis-à-vis des récepteurs β adrénergiques.
L'expérience est conduite sur coeur de rat isolé et perfusé selon la technique de Langendorff.
Après une préperfusion de 25 minutes avec une solution de Krebs-Henseleit, le coeur est perfusé avec de l'isoprénaline à la concentration de 10^-8M pendant 10 minutes; puis avec une solution d'isoprénaline à 10^-8M associée à la molécule à tester à la concentration de 10^-6M.
Si la molécule à tester diminue la dP/dt max en présence d'isoprénaline, on pourra affirmer que cette molécule se comporte comme un antagoniste de l'isoprénaline vis-à-vis des récepteurs β adrénergiques.

[3] = octanol-water partition coefficient at room temperature; assay type: physicochemical; settings: température ambiante
[4] = radioactivity in organs after injection in the mouse (Example 10); assay type: in vivo; settings: souris, 329.10^-12 mol
Text: Dans cet exemple, on teste chez la souris les propriétés du [^123I] - composé 6 comme traceur radioactif pour l'examen du myocarde.
Après injection de 500.10^-12 mol de [^123I]-composé 6, les animaux sont sacrifiés et les organes d'intérêt récupérés et comptés. Le tableau 3 qui suit reporte les valeurs de la radioactivité trouvée dans les organes ou liquides biologiques exprimées en pourcentage de la dose injectée par gramme d'organe. TABLEAU 3 :
Dans le tableau 4 qui suit, on a donné à titre comparatif les résultats obtenus lorsqu'on injecte 329.10^-12 mol de [^3H]CGP 12177.

[5] = biodistribution study in the mouse (Example 22); assay type: in vivo, souris; settings: for Biodistribution Coeur / Biodistribution Poumon: souris swiss femelles, injection intraveineuse
Procedure: L'étude de la biodistribution des radioligands chez la souris, permet d'apprécier l'intensité relative de la fixation cardiaque de la molécule et son évolution dans le temps.
Après marquage à l'iode 123 et purification par CLHP 20µCi environ de produit sont mis en solution dans 5 ml d'une solution : éthanol 20%-sérum physiologique 80%. Après injection intraveineuse de 25 µl de cette solution dans la queue de souris vigiles (souris swiss femelles de 20 à 25 g), celles-ci (5 à chaque fois) sont sacrifiées à différents temps après l'injection. On mesure pour chaque souris les activités cardiaques, hépatique, rénale et pulmonaire. Les résultats sont exprimés en pourcentage de la dose injectée par gramme d'organe.
Le CGP12177 étant la référence, un lot de souris a été étudié après injection de CGP 12177 marqué au tritium.

[6] = [^3H]CGP 12177 5.10^-9M, 30 minutes d'incubation, cardiomyocytes de rats nouveau-nés

pIC50 [1, 6]: 4.72
Compound: CC(C)NCC(O)COc1ccc(CC(N)=O)cc1 (stereo not shown) [atenolol, reference compound]

Compound: CC(C)NCC(O)COc1ccc(NC(=O)CCC=CI)cc1 (stereo not shown) [composé 6, 1-[4-(4-iodobut-3-énamido)phénoxy]-3-N-isopropyl aminopropan-2-ol]
pIC50 [1, 6]: 5.70 | pIC50 ([1]; summary, unit inferred): 5.69 | DP/dt max ([2]; Isoprénaline + molécule (10^e+8 min), isoprénaline 10^-8M, test molecule 10^-6M, n=6): 973±240 mmHg/min | pourcentage d'inhibition vis-à-vis de l'isoprénaline ([2]; effet antagoniste, summary): 116% | effect on the action of isoprénaline on dP/dt max ([2]; isoprénaline 10^-8M + molecule 10^-6M): antagonise complètement l'action de l'isoprénaline

Compound: (2S)-4 (3-t-butylamino-2-hydroxypropoxy)-benzimidazol-2-one [[^3H]-CGP 12177, reference compound]
COEFFICIENT DE PARTAGE OCTANOL-EAU ([3]; pH=4,2): 0,0088 | COEFFICIENT DE PARTAGE OCTANOL-EAU ([3]; pH=7,4): 0,18 | radioactivité COEUR ([4]; 1 min): 6,8±4 pourcentage de la dose injectée par gramme d'organe | radioactivité POUMON ([4]; 1 min): 26,3±2,1 pourcentage de la dose injectée par gramme d'organe | radioactivité COEUR ([4]; 2 min): 6,3±0,3 pourcentage de la dose injectée par gramme d'organe | radioactivité POUMON ([4]; 2 min): 31,6±6,8 pourcentage de la dose injectée par gramme d'organe | radioactivité COEUR ([4]; 5 min): 5,9±0,8 pourcentage de la dose injectée par gramme d'organe | radioactivité POUMON ([4]; 5 min): 29,7±5,8 pourcentage de la dose injectée par gramme d'organe | radioactivité COEUR ([4]; 10 min): 5,3±0,2 pourcentage de la dose injectée par gramme d'organe | radioactivité POUMON ([4]; 10 min): 29±5,1 pourcentage de la dose injectée par gramme d'organe | Biodistribution Coeur ([5]; 1 min.): 9 ± 1,4 pourcentage de la dose injectée par gramme d'organe | Biodistribution Poumon ([5]; 1 min.): 66,3 ± 9,2 pourcentage de la dose injectée par gramme d'organe | Biodistribution Coeur ([5]; 2 min.): 7,2 ± 0,9 pourcentage de la dose injectée par gramme d'organe | Biodistribution Poumon ([5]; 2 min.): 44,3 ± 8,6 pourcentage de la dose injectée par gramme d'organe | Biodistribution Coeur ([5]; 5 min.): 7,0 ± 1 pourcentage de la dose injectée par gramme d'organe | Biodistribution Poumon ([5]; 5 min.): 37,9 ± 9,3 pourcentage de la dose injectée par gramme d'organe | Biodistribution Coeur ([5]; 10 min.): 6,7 ± 1,3 pourcentage de la dose injectée par gramme d'organe | Biodistribution Poumon ([5]; 10 min.): 42 ± 8,5 pourcentage de la dose injectée par gramme d'organe | activité dans le myocarde (plateau) ([5]; souris, plateau dès la 2ème minute après l'injection): ~7 % de la dose injectée par gramme d'organe
